From ChEMBL document CHEMBL1146971, “Discovery of novel heterocyclic factor VIIa inhibitors” (Bioorg Med Chem Lett, 2006)

Assays:
Coagulation factor VII = molecular target: T1, Coagulation factor VII (Homo sapiens, UniProt P08709); assay: Binding affinity to f7a
T1 sequence (P08709 whole entry): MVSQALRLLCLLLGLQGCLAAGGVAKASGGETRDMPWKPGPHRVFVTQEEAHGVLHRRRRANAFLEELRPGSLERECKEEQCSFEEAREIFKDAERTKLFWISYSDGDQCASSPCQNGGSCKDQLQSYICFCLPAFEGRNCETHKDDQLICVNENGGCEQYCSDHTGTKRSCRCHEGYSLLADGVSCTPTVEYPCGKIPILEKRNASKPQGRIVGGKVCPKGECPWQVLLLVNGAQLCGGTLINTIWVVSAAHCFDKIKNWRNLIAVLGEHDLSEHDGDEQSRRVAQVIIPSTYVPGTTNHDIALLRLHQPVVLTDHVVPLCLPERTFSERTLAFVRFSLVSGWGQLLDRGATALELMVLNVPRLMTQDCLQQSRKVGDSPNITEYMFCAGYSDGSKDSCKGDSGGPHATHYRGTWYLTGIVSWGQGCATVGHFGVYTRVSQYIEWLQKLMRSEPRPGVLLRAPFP

Homo sapiens = species on record: Homo sapiens; assay: Selectivity for f7a over trypsin
Coagulation factor X = Coagulation factor X (Homo sapiens, UniProt P00742); assay: Binding affinity to f10a
Sequence of Coagulation factor X (P00742 41-179 limits assumed): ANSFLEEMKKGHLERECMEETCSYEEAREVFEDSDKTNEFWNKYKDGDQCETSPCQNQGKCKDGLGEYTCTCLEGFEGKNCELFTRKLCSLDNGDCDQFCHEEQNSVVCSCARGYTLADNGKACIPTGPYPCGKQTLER
Sequence of Coagulation factor X (P00742 235-488 limits assumed): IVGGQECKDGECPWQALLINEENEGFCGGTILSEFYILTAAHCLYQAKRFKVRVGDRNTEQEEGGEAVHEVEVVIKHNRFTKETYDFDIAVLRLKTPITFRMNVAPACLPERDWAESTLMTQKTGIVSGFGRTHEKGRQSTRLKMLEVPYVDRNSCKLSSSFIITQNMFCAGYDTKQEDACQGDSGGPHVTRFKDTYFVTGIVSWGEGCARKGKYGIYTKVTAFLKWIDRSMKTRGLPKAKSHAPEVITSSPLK

Prothrombin = Prothrombin (Homo sapiens, UniProt P00734); assay: Binding affinity to thrombin
Trypsin = Trypsin (Homo sapiens, UniProt P07477+P07478+P35030); assay: Binding affinity to trypsin; format: protein assay

| Compound | Ki (Coagulation factor VII) | Selectivity ratio (Homo sapiens) | Ki (Coagulation factor X) | Ki (Prothrombin) | Ki (Trypsin) |
| --- | --- | --- | --- | --- | --- |
| Nc1ccc2[nH]c(-c3cc(CC(=O)O)cc(-c4cccc([N+](=O)[O-])c4)c3O)nc2n1 | 39 µM | – | > 150 µM | > 150 µM | > 150 µM |
| O=C(O)Cc1cc(-c2cccc([N+](=O)[O-])c2)c(O)c(-c2nc3ccccc3[nH]2)c1 | 11 µM | – | > 150 µM | > 150 µM | > 150 µM |
| NC(=O)Nc1cccc(-c2cc(CC(=O)O)cc(-c3cc4[nH]c(N)ccc-4n3)c2O)c1 | 12 µM | > 13 | – | – | – |
| N=C(N)c1ccc2[nH]c(-c3cc(CC(=O)O)cc(-c4cccc([N+](=O)[O-])c4)c3O)nc2c1 | – | – | 0.32 µM | > 150 µM | 11 µM |
| CS(=O)(=O)c1cccc(-c2cc(CC(=O)O)cc(-c3cc4[nH]c(N)ccc-4n3)c2O)c1 | 7.4 µM | 16 | – | – | – |
| Nc1ccc2[nH]c(-c3cc(CC(=O)O)cc(-c4cccc([N+](=O)[O-])c4)c3O)cc2n1 | – | 400 | 3.5 µM | 44 µM | 120 µM |

Further molecules by falling Ki (Coagulation factor VII), results first:

| Ki (Coagulation factor VII) | Selectivity ratio (Homo sapiens) | Ki (Coagulation factor X) | Ki (Prothrombin) | Ki (Trypsin) | Compound |
| --- | --- | --- | --- | --- | --- |
| 2.5 µM | 84 | – | – | – | Nc1ccc2[nH]c(-c3cc(CC(=O)O)cc(-c4cccc(O)c4)c3O)cc2n1 |
| 2.4 µM | 67 | – | – | – | Nc1ccc2[nH]c(-c3cc(CC(=O)O)cc(-c4ccccc4)c3O)cc2n1 |
| 1.4 µM | > 100 | – | – | – | CN(C)CCNC(=O)NCc1cccc(-c2cc(CC(=O)O)cc(-c3cc4[nH]c(N)ccc-4n3)c2O)c1 |
| 0.02 µM | > 7000 | – | – | – | Nc1ccc2[nH]c(-c3cc(CC(=O)O)cc(-c4cccc(CNC(=O)Nc5ccccc5)c4)c3O)cc2n1 |
| 0.004 µM | – | 0.05 µM | 2.9 µM | 0.4 µM | N=C(N)c1ccc2[nH]c(-c3cc(CC(=O)O)cc(-c4cccc([N+](=O)[O-])c4)c3O)cc2c1 |
